Laboratory results reported in patent US8367687B2, “Pyrazole derivatives” (Novartis AG, priority 2007, dated 2013).
Where two headings read alike, the source gives them in different places.

Columns and labels:
CDK4 = CDK4 (Homo sapiens, UniProt P11802); experiment: CDK4 HTRF; assay type: biochemical
CDK2 cyA = CDK2 cyA (Homo sapiens, UniProt P24941); experiment: CDK2 cyA IMAP; assay type: biochemical
hCDK1/B = hCDK1/B (Homo sapiens, UniProt P06493); experiment: hCDK1/B; assay type: biochemical
p-pRb/S780 = p-pRb/S780 ELISA Cellular Assay (CDK4 ELISA assay); assay type: cell-based; settings: cells treated for 24 hrs
Description: Biological Activity p-pRb/S780 ELISA Cellular Assay
Maxisorp plates (Nunc 442404) are coated with 50 ul of 1 ug/mL total phospholated Retinoblast Protein (pRb) antibody (4H1 Cell Signaling 9309L) diluted in DPBS (Phosphate Buffered Saline) overnight at 4° C. The next day plates are blocked with Superblock in TBST (Pierce 37535) for one hour to overnight—changing block once during that time. Cells are plated at 50-60% confluency in a 96 well plate (Corning 3585) in 100 uL complete media (media containing fetal bovine serum (Gibco 1600-044), 2 mM L-Glutamine (Gibco 25030), and 1% Penicillin/Streptomycin (Gibco 15140-122) and grown overnight in a humidified chamber at 37° C. and 5% CO2. Compounds (in DMSO) are diluted in media to create a 7 point dilution series of compound with concentrations ranging from 110 uM to 0.027 uM. 10 ul of the diluted compounds are added to the cells, with final concentrations on cells ranging from 10 uM to 0.002 uM. Cells are treated for 24 hrs in a humidified chamber at 37° C. and 5% CO2. Following compound incubation, cells are lysed with 40 uL/well lysis buffer (50 mM Tris-HCL pH 7.5 (Invitrogen 15567-027), 120 mM NaCl (Promega V4221), 1 mM EDTA (Gibco 15575-038), 6 mM EGTA (Fisher 02783-100), 1% Nonidet P40 (Fluka R02771). Plates are placed on Titerplate shaker (Labline model 4625) for 5 minutes at 4° C. to lyse cells. After lysis, 10 ul of cell lysate and 50 ul 1×PBS/10% Superblock (Gibco 10010 and Pierce 37535) is added to each well of the precoated and blocked Maxisorp plate and allowed to bind at room temperature for 2 hours on Oribtron Rotator II (Boekel Industries Model 260250). Plates are then washed 3× with 1×TBST (Teknova T9201) using Biotek platewasher equipped with a Biostack. The final wash is not aspirated. The final wash is removed by flicking off and tapping plate on paper towels. ppRbS780 antibody (Cell Signaling 9307L) is diluted 1:1000 in 1×PBS/10% Superblock (Gibco 10010 and Pierce 37535) and 50 ul is added to each well. Plates are then incubated 1 hour on Oribtron Rotator II (Boekel Industries Model 260250). Plates are then washed as previously described. Goat anti-rabbit HRP (Promega W401B) is diluted 1:2500 1×PBS/10% Superblock (Gibco 10010 and Pierce 37535) and 50 ul is added to each well. Plates are then incubated 30 minutes on Oribtron Rotator II. Plates are then washed as previously described. 50 uL Ultra TMB ELISA (Pierce 34028) is then added to each well. Plates are incubated 5-20 minutes until blue color develops. 50 ul 2M Sulfuric acid (Mallinckrodt 2468-46) is then added to each well to stop the reaction. Absorbance at 450 nm for each plate is read on Spectramax Plus (Molecular Devices).

[1] = Table 2, read-out: CDK4 HTRF/ IC50
[2] = Table 2, read-out: CDK2cyA IMAP/ IC50
[3] = Table 2, read-out: p_pRb Cap EL/ IC50_ppRbinh
[4] = Table 1, read-out: CDK2 cyA IMAP
[5] = Table 1, read-out: CDK4 ELISA assay IC50

Sequence of hCDK1/B (P06493 whole entry): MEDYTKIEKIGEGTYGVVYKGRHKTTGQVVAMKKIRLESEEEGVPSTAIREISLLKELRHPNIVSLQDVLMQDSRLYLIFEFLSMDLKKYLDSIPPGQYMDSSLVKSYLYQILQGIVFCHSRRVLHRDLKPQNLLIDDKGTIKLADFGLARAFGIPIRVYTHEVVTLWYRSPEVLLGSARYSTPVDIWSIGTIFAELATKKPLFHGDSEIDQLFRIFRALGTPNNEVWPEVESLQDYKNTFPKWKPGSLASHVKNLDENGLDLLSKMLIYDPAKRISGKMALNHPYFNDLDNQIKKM
Sequence of hCDK1/B (P14635 whole entry partner): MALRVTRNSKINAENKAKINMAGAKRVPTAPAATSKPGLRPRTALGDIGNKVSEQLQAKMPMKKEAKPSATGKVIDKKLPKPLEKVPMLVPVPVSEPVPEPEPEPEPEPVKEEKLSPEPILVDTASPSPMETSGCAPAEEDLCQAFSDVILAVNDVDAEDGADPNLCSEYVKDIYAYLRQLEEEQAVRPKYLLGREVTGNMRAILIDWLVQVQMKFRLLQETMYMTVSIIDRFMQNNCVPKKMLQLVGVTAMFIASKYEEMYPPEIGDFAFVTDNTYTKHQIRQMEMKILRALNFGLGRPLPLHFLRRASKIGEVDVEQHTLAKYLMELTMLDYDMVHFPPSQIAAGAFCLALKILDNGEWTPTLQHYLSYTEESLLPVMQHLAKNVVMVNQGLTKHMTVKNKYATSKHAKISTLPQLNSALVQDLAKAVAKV
Sequence of CDK4 (P11802 whole entry): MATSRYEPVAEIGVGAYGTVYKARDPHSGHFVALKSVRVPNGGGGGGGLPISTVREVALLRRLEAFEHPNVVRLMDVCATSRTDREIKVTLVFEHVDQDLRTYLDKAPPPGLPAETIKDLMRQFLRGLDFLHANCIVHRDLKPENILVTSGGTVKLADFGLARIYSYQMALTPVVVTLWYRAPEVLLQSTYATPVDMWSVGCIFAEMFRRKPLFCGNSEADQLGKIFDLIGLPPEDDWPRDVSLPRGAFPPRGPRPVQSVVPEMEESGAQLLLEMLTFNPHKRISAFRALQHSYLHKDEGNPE
Sequence of CDK4 (P24385 whole entry partner): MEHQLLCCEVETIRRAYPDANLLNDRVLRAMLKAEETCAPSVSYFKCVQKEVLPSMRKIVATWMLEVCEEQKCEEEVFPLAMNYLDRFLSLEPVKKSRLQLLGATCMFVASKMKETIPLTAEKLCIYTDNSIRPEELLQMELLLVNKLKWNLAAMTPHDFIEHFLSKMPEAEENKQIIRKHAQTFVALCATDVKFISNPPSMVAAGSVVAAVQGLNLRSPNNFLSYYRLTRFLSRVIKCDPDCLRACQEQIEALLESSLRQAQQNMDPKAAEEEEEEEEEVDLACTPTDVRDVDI

| Structure (SMILES) | IC50 (CDK4; [1]) [µM] | IC50 (CDK2 cyA; [2]) [µM] | IC50 (hCDK1/B; Table 2) [µM] | IC50 (p-pRb/S780; [3]) [µM] | IC50 (CDK4; Table 1, read-out: CDK4 HTRF) [µM] | IC50 (CDK2 cyA; [4]) [µM] | IC50 (hCDK1/B; Table 1) [µM] | IC50 (p-pRb/S780; [5]) [µM] |
| --- | --- | --- | --- | --- | --- | --- | --- | --- |
| Cc1cc(C)cc(CNc2nccc(-c3c[nH]nc3C)n2)c1 [Example 134] | < 5 | ≥ 15 | ≥ 15 | < 15 |  |  |  |  |
| Cc1ccc(CNc2cc(-c3cn[nH]c3C3CCCC3)ccn2)cc1 [Example 64] |  |  |  |  | < 10 | < 5 | < 5 | < 5 |
| Cc1n[nH]cc1-c1ccnc(NCCOc2ccccc2)n1 [Example 98] | < 5 | < 15 | < 15 | < 15 |  |  |  |  |
| CCN(CC)CCNc1nccc(-c2c[nH]nc2C(C)C)n1 [Example 144] | < 5 | ≥ 15 | ≥ 15 | < 15 |  |  |  |  |
| Cc1n[nH]cc1-c1ccnc(NCC(=O)OC(C)(C)C)n1 [Example 129] | < 15 | ≥ 15 | ≥ 15 | < 15 |  |  |  |  |
| Cc1cc(C)n(CCNc2nccc(-c3c[nH]nc3C(C)C)n2)n1 [Example 149] | < 5 | < 15 | < 10 | < 15 |  |  |  |  |
| COCCCNc1nccc(-c2c[nH]nc2C)n1 [Example 108] | < 5 | ≥ 15 | < 15 | < 15 |  |  |  |  |
| Cc1n[nH]cc1-c1ccnc(NCCN(C)C)n1 [Example 94] | < 10 | ≥ 15 | ≥ 15 | < 15 |  |  |  |  |
| Cc1n[nH]cc1-c1ccnc(NCc2cccc(C(F)(F)F)c2)n1 [Example 89] | < 5 | < 10 | < 10 | < 15 |  |  |  |  |
| c1cc(-c2cn[nH]c2C2CCCC2)cc(NCCN2CCCCC2)n1 [Example 61] |  |  |  |  | < 5 | ≥ 15 | ≥ 15 | < 15 |
| CC(C)c1[nH]ncc1-c1ccnc(NCCOc2ccccc2)c1 [Example 21] |  |  |  |  | < 5 | < 10 | < 10 | < 15 |
| CC(C)c1n[nH]cc1-c1ccnc(NCCN(C(C)C)C(C)C)n1 [Example 146] | < 5 | ≥ 15 | < 5 | < 15 |  |  |  |  |
| CC(C)c1n[nH]cc1-c1ccnc(NC2CCCc3ccccc32)n1 (centres unmarked) [Example 169] | < 0.05 | < 1 | < 5 | < 5 |  |  |  |  |
| CC(C)c1[nH]ncc1-c1ccnc(Nc2ccccc2)c1 [Example 48] |  |  |  |  | < 0.1 | < 0.05 | < 0.1 | < 1 |
| Cc1ccc(CNc2nccc(-c3c[nH]nc3C)n2)cc1 [Example 117] | < 10 | ≥ 15 | ≥ 15 | < 15 |  |  |  |  |
| Cc1n[nH]cc1-c1ccnc(NCCCN(C)C)n1 [Example 118] | < 15 | ≥ 15 | ≥ 15 | < 15 |  |  |  |  |
| Cc1n[nH]cc1-c1ccnc(NCc2ccccn2)n1 [Example 126] | < 15 | ≥ 15 | ≥ 15 | < 15 |  |  |  |  |
| CC(C)c1n[nH]cc1-c1ccnc(NC2CCc3ccccc32)n1 (centres unmarked) [Example 174] | < 0.05 | < 1 | < 1 | < 5 |  |  |  |  |
| Cc1n[nH]cc1-c1ccnc(NCc2cc(F)cc(F)c2)n1 [Example 135] | < 1 | < 5 | < 5 | < 15 |  |  |  |  |
| Cc1n[nH]cc1-c1ccnc(NCCC2CCCN2C)n1 (centres unmarked) [Example 113] | < 10 | ≥ 15 | ≥ 15 | < 15 |  |  |  |  |
| Cc1n[nH]cc1-c1ccnc(NCCc2ccccc2)n1 [Example 91] | < 1 | < 10 | < 10 | < 15 |  |  |  |  |
| CC(C)c1n[nH]cc1-c1ccnc(NC2CCc3cc(Cl)ccc32)n1 (centres unmarked) [Example 190] | < 0.5 | < 0.5 | < 5 | < 5 |  |  |  |  |

| Structure (SMILES) | IC50 (CDK4; [1]) [µM] | IC50 (CDK2 cyA; [2]) [µM] | IC50 (hCDK1/B; Table 2) [µM] | IC50 (p-pRb/S780; [3]) [µM] | IC50 (CDK4; Table 1, read-out: CDK4 HTRF) [µM] | IC50 (CDK2 cyA; [4]) [µM] | IC50 (hCDK1/B; Table 1) [µM] | IC50 (p-pRb/S780; [5]) [µM] |
| --- | --- | --- | --- | --- | --- | --- | --- | --- |
| Cc1n[nH]cc1-c1ccnc(NCC2CCCCC2)n1 [Example 103] | < 5 | < 10 | < 10 | < 15 |  |  |  |  |
| Cc1n[nH]cc1-c1ccnc(NCCCN2CCCC2)n1 [Example 128] | < 15 | ≥ 15 | ≥ 15 | < 15 |  |  |  |  |
| Cc1n[nH]cc1-c1ccnc(NC2CCCN(C(=O)OC(C)(C)C)C2)n1 (centres unmarked) [Example 115] | < 10 | ≥ 15 | ≥ 15 | < 15 |  |  |  |  |
| CCCCNc1nccc(-c2c[nH]nc2C)n1 [Example 119] | < 5 | < 10 | < 10 | < 15 |  |  |  |  |
| Cc1n[nH]cc1-c1ccnc(NC2CC2)n1 [Example 97] | < 5 | < 10 | < 10 | < 15 |  |  |  |  |
| COc1cccc(CNc2nccc(-c3c[nH]nc3C)n2)c1 [Example 107] | < 10 | ≥ 15 | ≥ 15 | < 15 |  |  |  |  |
| CC(C)c1[nH]ncc1-c1ccnc(NCCN2CCCCC2)c1 [Example 31] |  |  |  |  | < 5 | ≥ 15 | ≥ 15 | < 15 |
| CC(C)c1[nH]ncc1-c1ccnc(NCc2ccncc2)c1 [Example 22] |  |  |  |  | < 5 | < 5 | < 5 | < 0.5 |
| CC(C)c1n[nH]cc1-c1ccnc(NC2CCN(Cc3ccccc3)CC2)n1 [Example 85] | < 0.05 | < 1 | < 0.5 | < 10 |  |  |  |  |
| CC(C)CNc1nccc(-c2c[nH]nc2C(C)C)n1 [Example 163] | < 0.1 | < 0.1 | < 0.5 | < 5 |  |  |  |  |
| CC(C)c1[nH]ncc1-c1ccnc(NCc2cccc(C(F)(F)F)c2)c1 [Example 25] |  |  |  |  | < 5 | < 5 | < 5 | < 0.1 |
| Cc1n[nH]cc1-c1ccnc(NCCN2CCCCC2)n1 [Example 111] | < 10 | ≥ 15 | ≥ 15 | < 15 |  |  |  |  |
| Cc1n[nH]cc1-c1ccnc(NCCN2CCOCC2)n1 [Example 99] | < 10 | ≥ 15 | ≥ 15 | < 15 |  |  |  |  |
| CC(C)c1[nH]ncc1-c1ccnc(NC2CCC2)c1 [Example 2] |  |  |  |  | < 0.5 | < 0.5 | < 0.5 | < 1 |
| CC(C)c1n[nH]cc1-c1ccnc(NC2CCNCC2)n1 [Example 141] | < 0.05 | < 1 | < 0.5 | < 5 |  |  |  |  |
| COc1cccc(OC)c1CNc1nccc(-c2c[nH]nc2C(C)C)n1 [Example 156] | < 15 | ≥ 15 | ≥ 15 | < 15 |  |  |  |  |
| CC(C)c1n[nH]cc1-c1ccnc(NC2CCN(C)CC2)n1 [Example 139] | < 0.05 | < 1 | < 0.5 | < 5 |  |  |  |  |
| c1cc(-c2cn[nH]c2C2CCCC2)cc(NCCCN2CCOCC2)n1 [Example 65] |  |  |  |  | < 5 | ≥ 15 | ≥ 15 | < 15 |
| COc1ccccc1CNc1nccc(-c2c[nH]nc2C)n1 [Example 130] | < 5 | < 15 | < 10 | < 15 |  |  |  |  |
| COCCNc1nccc(-c2c[nH]nc2C)n1 [Example 120] | < 15 | ≥ 15 | ≥ 15 | < 15 |  |  |  |  |
| Cc1ccccc1CNc1cc(-c2cn[nH]c2C2CCCCCC2)ccn1 [Example 66] |  |  |  |  | < 5 | < 10 | < 10 | < 15 |
| Cc1n[nH]cc1-c1ccnc(NCCc2c[nH]c3ccccc23)n1 [Example 116] | < 5 | < 10 | < 5 | < 15 |  |  |  |  |
